From ChEMBL document CHEMBL6177928, “Probing structural requirements for thiazole-based mimetics of sunitinib as potent VEGFR-2 inhibitors” (RSC Med Chem, 2025) come the findings set out here.

Structures are written as SMILES.

In one data set the test system is HeLa. Briefly: cells. The following applies: Homo sapiens, 48 h.
In a further data set the test system is HEp-2. Briefly: cells. The following applies: Homo sapiens, HEp-2, 48 h.
Another data set has as its system HepG2. Briefly: cells. The conditions noted are these: Homo sapiens, HepG2, 48 h.
The subject of another data set is HCT-116. Description: cells. The following applies: Homo sapiens, HCT-116, 48 h.
Another data set concerns MCF7. Briefly: cells. The following applies: Homo sapiens, MCF7, 48 h.
A further data set deals with WI-38. Description: Cytotoxicity against human WI-38 cells up to 50 uM incubated for 48 hrs by MTT assay. The conditions noted are these: wi-38, 48 h. The data set is classed as toxicity, cell-based.
Data set [1] is described as follows: Cytotoxicity against human WI-38 cells incubated for 48 hrs by MTT assay. The data set is classed as toxicity, cell-based. For orientation: Tetrazolium dyes change colour on reduction, which living cells bring about.
The subject of the next data set is WISH. Description: Cytotoxicity against human WISH cells at up to 50 uM incubated for 48 hrs by MTT assay. The data set is classed as toxicity, cell-based.
Data set [2] is described as follows: Cytotoxicity against human WISH cells incubated for 48 hrs by MTT assay. Format: toxicity, cell-based.

Description for HCT-116: Antitumor activity against human HCT-116 cells assessed as inhibition of cell viability incubated for 48 hrs by MTT assay
Description for HEp-2: Antitumor activity against human HEp-2 cells assessed as inhibition of cell viability incubated for 48 hrs by MTT assay
Description for HeLa: Antitumor activity against human HeLa cells assessed as inhibition of cell viability incubated for 48 hrs by MTT assay
Description for HepG2: Antitumor activity against human HepG2 cells assessed as inhibition of cell viability incubated for 48 hrs by MTT assay
Description for MCF7: Antitumor activity against human MCF7 cells assessed as inhibition of cell viability incubated for 48 hrs by MTT assay

On to `N#Cc1sc(Nc2ccccc2)nc1N1C(=N)SCC1=O`, for which the IC50 in the data set on HeLa is 31.4 µM; in the data set on HEp-2, 69.5 µM; with HepG2, 35.3 µM; in the data set on HCT-116 it was 44.1 µM; with MCF7 it was 22.5 µM.
`CC(=O)N1CCN(CC(=O)Nc2nc(Nc3ccccc3)sc2C#N)CC1`: the IC50 in the data set on HeLa stood at 74.5 µM; in the data set on HEp-2 it was 89 µM; in the data set on HepG2, 78.4 µM; with HCT-116, 65.2 µM; in the data set on MCF7, 61.9 µM.
Take `N#Cc1sc(Nc2ccccc2)nc1NC(=O)CN1CCN(Cc2ccccc2)CC1`: the IC50 in the data set with HeLa stood at 53.2 µM; in the data set with HEp-2 it was 82.5 µM; in the data set with HepG2 it was 61.5 µM; in the data set with HCT-116 it was 56.9 µM; in the data set on MCF7 it was 45.3 µM.
For `N#Cc1sc(Nc2ccccc2)nc1NC(=O)CNNCC(=O)c1ccc(Br)cc1`, in that order: 43.4 µM, 49.1 µM, 46.1 µM, 34.9 µM and 35.6 µM.
In the case of `N#Cc1sc(Nc2ccccc2)nc1Nc1cnc(N)o1`, the Activity entry in the data set on WI-38 and with WISH was “Non-toxic” throughout. In addition, the IC50 with HeLa was found to be 16.4 µM; with HEp-2, 39.7 µM; in the data set on HepG2, 20.1 µM; in the data set with HCT-116, 25.8 µM; in the data set with MCF7 it was 14.8 µM. The IC50 at 48 h in data set [1] amounted to 27.5 µM; in [2], 24 µM.
In the case of `N#Cc1sc(Nc2ccccc2)nc1NC(=O)CN1CCN(c2ccccc2)CC1`, the IC50 in the data set on HeLa turned out to be 38.5 µM; with HEp-2, 73.5 µM; in the data set on HepG2, 42.4 µM; in the data set on HCT-116 it was 51.7 µM; in the data set with MCF7 it was 19.1 µM.
In the case of `N#Cc1sc(Nc2ccccc2)nc1N1CSCC1=O`, the 50% inhibitory concentration (IC50) with HeLa was 94.3 µM; in the data set with HEp-2, more than 100 µM; in the data set on HepG2, 91.5 µM; in the data set with HCT-116, 86.5 µM; with MCF7, 72.8 µM.
For `N#Cc1sc(Nc2ccccc2)nc1NC(=O)CN1CCN(c2cccc(Cl)c2)CC1`, in that order: 72.1 µM, 87.9 µM, 76 µM, 60.4 µM and 59.1 µM.
With `N#Cc1sc(Nc2ccccc2)nc1NC(=O)CN1CCOCC1`, the IC50 is 36.7 µM in the data set with HeLa; 45.8 µM in the data set on HEp-2; 38.5 µM in the data set on HepG2; 31.1 µM with HCT-116; 33.5 µM in the data set with MCF7.
For the compound `N#Cc1sc(Nc2ccccc2)nc1NC(=O)CNNC(=O)c1ccc([N+](=O)[O-])cc1`, the IC50 in the data set on HeLa amounted to 49.8 µM; in the data set on HEp-2, 80.4 µM; in the data set on HepG2 it was 57.3 µM; in the data set with HCT-116, 55.2 µM; with MCF7 it was 43.2 µM.
In the case of `CN1CCN(CC(=O)Nc2nc(Nc3ccccc3)sc2C#N)CC1`, the IC50 with HeLa came to 67.8 µM; with HEp-2 it was 94.7 µM; in the data set on HepG2, 73.2 µM; in the data set on HCT-116 it was 70.5 µM; with MCF7, 52.7 µM.
With `Cc1ccc(C(=O)CNNCC(=O)Nc2nc(Nc3ccccc3)sc2C#N)cc1`, the IC50 is more than 100 µM in the data set with HeLa; more than 100 µM in the data set on HEp-2; 96.2 µM in the data set with HepG2; 81.6 µM in the data set with HCT-116; 84.1 µM in the data set on MCF7.
As to `N#Cc1sc(Nc2ccccc2)nc1NC(=O)CNNC(=O)c1ccc(Cl)cc1`, the IC50 in the data set on HeLa is 86.8 µM; with HEp-2, more than 100 µM; in the data set on HepG2, 89.9 µM; in the data set on HCT-116, 91.9 µM; in the data set on MCF7, 64.8 µM.
With `N#Cc1sc(Nc2ccccc2)nc1NC(=O)CNNCc1ccccc1`, the Activity entry with WI-38 and with WISH was “Non-toxic” each time. The IC50 with HeLa worked out at 21.4 µM; in the data set on HEp-2 it was 68.4 µM; in the data set with HepG2, 28.3 µM; with HCT-116 it was 41.8 µM; in the data set with MCF7, 9.1 µM. Besides, the IC50 at 48 h in data set [1] amounted to 75.6 µM; in data set [2], 47.4 µM.
With `N#Cc1sc(Nc2ccccc2)nc1NC(=O)CNNC(=O)c1ccccc1`, the IC50 in the data set on HeLa amounted to 69.8 µM; in the data set with HEp-2, 92.2 µM; in the data set on HepG2, 74.3 µM; in the data set on HCT-116, 68.6 µM; with MCF7, 50.4 µM.
For `CCN(CC)CCNC(=O)c1c(C)[nH]c(/C=C2\C(=O)Nc3ccc(F)cc32)c1C` [SUNITINIB], in that order: 7.48 µM, 7.58 µM, 12.3 µM, 8.53 µM and 5.19 µM.
`N#Cc1sc(Nc2ccccc2)nc1Nc1cnc(N)s1`: the Activity entry in the data set on WI-38 and in the data set on WISH was “Non-toxic” each time. The IC50 in the data set with HeLa was 14 µM; with HEp-2, 35.2 µM; in the data set with HepG2, 18.5 µM; in the data set with HCT-116 it was 19.7 µM; with MCF7, 9.67 µM. Moreover, the IC50 at 48 h in [1] was more than 100 µM; in data set [2], 82.7 µM.
Turning to `N#Cc1sc(Nc2ccccc2)nc1NC(=O)CNNCc1ccc([N+](=O)[O-])cc1`, the IC50 in the data set with HeLa was determined as 33.3 µM; with HEp-2 it was 43.6 µM; with HepG2 it was 35.8 µM; with HCT-116, 29.3 µM; in the data set on MCF7 it was 26.2 µM.
In the case of `COc1cccc2c1C(=O)c1c(O)c3c(c(O)c1C2=O)C[C@@](O)(C(=O)CO)C[C@@H]3O[C@H]1C[C@H](N)[C@H](O)[C@H](C)O1` [DOXORUBICIN], the Activity entry in the data set on WI-38 and in the data set with WISH was “Non-toxic” in each case. In data set [2], this compound showed an IC50 at 48 h of 3.34 µM.
In the case of `N#Cc1sc(Nc2ccccc2)nc1NC(=O)CN1CCCCC1`, the Activity entry in the data set with WI-38 and in the data set with WISH was “Non-toxic” each time. Moreover, the IC50 was found to be 22.8 µM in the data set on HeLa; 28.8 µM with HEp-2; 30.5 µM in the data set on HepG2; 14.2 µM with HCT-116; 16.7 µM with MCF7. Moreover, the IC50 at 48 h in [1] was 23.7 µM; in [2], 21.2 µM.
Consider `N#Cc1sc(Nc2ccccc2)nc1NC(=O)CNNCC(=O)c1ccccc1`, for which the IC50 is 47 µM in the data set on HeLa; 64.7 µM in the data set with HEp-2; 52.3 µM in the data set on HepG2; 36.5 µM in the data set on HCT-116; 39 µM in the data set on MCF7.
For the compound `N#Cc1sc(Nc2ccccc2)nc1NC(=O)CNNCC(=O)c1cc2ccccc2oc1=O`, the 50% inhibitory concentration (IC50) in the data set on HeLa came to 45.5 µM; in the data set on HEp-2, 67.2 µM; with HepG2, 49.4 µM; in the data set with HCT-116, 37.6 µM; in the data set on MCF7, 34.1 µM.

In general, IC50 refers to the concentration needed to halve the response being measured.
